Reference: patent US6660910B1, “Selection marker” (Syngenta Mogen B.V., priority 1997, dated 2003)

What was measured:
Type in all cases: cell-based
[1] = tested on: root segments of Arabidopsis thaliana cv. C24; assay: Arabidopsis root transformation with selection on cyanamide or kanamycin
Procedure: Described below is the method used for transformation of root segments of Arabidopsis thaliana cv. C24 using Agrobacterium tumefaciens. The binary vectors for this transformation method are identical to those described above.
Six mg of Arabidopsis seeds were germinated in a flask containing liquid Germination Medium (GM) under 16 h light period (1700 lux) at 24° C. and a 8 h dark period at 21° C. at 80 rpm. (The contents of various media can be found in Table 4). Roots of 9 days old seedlings were isolated in a sterile petridish and collected in a drop of Germination Medium (GM). Roots were cut in segments of approximately 3-5 mm and approximately 100 explants were spread evenly on a nylon membrane (O 8 cm) which was placed on plates containing Callus Inducing Medium (CIM). The plates were incubated 3 days under the same conditions as described above.
The Agrobacterium strain used in this study harbored a rifampicin selection marker in a C 58 chromosomal background. The construction of the helper strain MOG101 is described by Hood et al. (1993).
Agrobacteria were grown overnight in LB medium with antibiotics (rifampicin 20 mg/l, kanamycin 100 mg/l). The overnight culture was diluted 1:10 in LB without antibiotics and grown for approximately 3 hours. Bacterial suspensions were centrifuged at 1600×g for 15 minutes at room temperature. Bacteria were resuspended in GM and adjusted to OD600=0.1 and used for cocultivation.
The membrane containing approximately 100 explants was incubated for 2 minutes with the Agrobacterium suspension and dried on sterile filter paper to remove excess of bacteria. The membrane with explants are cultured for 48 h on CIM plates. After rinsing the membrane and explants with liquid GM these were incubated on Shoot Induction Medium (SIM) plates containing several concentrations of cyanamide or kanamycin. After 5 days the membrane with the explants was transferred to the same medium (SIM) for subculture. The second subculture was after 2 weeks. Approximately four weeks after cocultivation 60 shoots per cyanamide concentration were excised and placed on plates with Shoot Elongation Medium (SEM) containing 30 mg/l cyanamide. Shoots which were able to root are tested on their transgenic character by testing leaflets and flowers for expression of the gus gene using a histochemical GUS assay.
Three experiments were performed. Shoots obtained from Exp. 98-8 and 98-11 were transferred to rooting medium (SEM) containing 30 mg/litre cyanamide. Shoots obtained from Exp. 98-13 were transferred to rooting medium containing the same concentration as the selection medium (SIM), for results see Table 4a. The shoots obtained from the kanamycin selection (50 mg/litre) were transferred to rooting medium containing 25 mg/litre Kanamycin.

[2] = tested on: root segments of Arabidopsis thaliana cv. C24; assay: as above; conditions: pMOG 1156; treatment kanamycin 50 mg/litre; column headed same conc. as treatment in rooting medium
[3] = tested on: BMS cells; assay: Maize killing curve; conditions: for Observations (light microscope) / % dead cells (light microscope): Day 15; for % dead cells (light microscope): clumps of cells
Procedure: Stock solutions of cyanamide were prepared in water at 10 and 100 mg/ml and filter sterilised. Aliquots were stored at −20° C. Media were prepared by adding MS medium (4.4 g), sucrose (20 g), 2,4-D (2.0 mg) and agar (8 g) to 1 litre of water. […] BMS liquid was prepared as above minus agar. BMS cells were added to media containing cyanamide in three ways:
a. BMS cell suspension added to falcon tube and liquid removed. Then the BMS cells were arranged on the surface of the agar in clumps of approximately 5 mm in diameter, 5 clumps per plate, 3 plates per concentration, while on the base of each petri dish the outline of each clump was marked;
b. Approximately 0.5 ml pack cell volume plus 1.5 ml BMS liquid added to surface of agar and the cells were spread finely over surface of agar. Three plates per treatment were set up.
c. Approximately 0.5 ml pack cell volume plus 1.5 ml BMS liquid were added to filter paper overlying agar. Cells were spread evenly over surface of filter. One plate per treatment was set up.
The plates were sealed with micropore tape and incubated at 25° C. in the dark. […]
Samples were taken from the clumps of cells on all levels of cyanamide for observation under a light microscope. With increasing levels of cyanamide there were increasing numbers of dead cells where the cell contents had shrunk away from the cell wall, and an increase in the number of dark bodied starch grains. Cells were observed resuspended in water and with FDA stain under UV light.

[4] = pMOG 1156, Experiment 98-8, selection kanamycin 50 mg/litre, rooting medium 25 mg/litre Kanamycin
[5] = pMOG 1156, Experiment 98-11, selection kanamycin 50 mg/litre, rooting medium 25 mg/litre Kanamycin
[6] = pMOG 1156, Experiment 98-13, selection kanamycin 50 mg/litre, rooting medium 25 mg/litre Kanamycin
[7] = pMOG 1156, Experiment 98-8, selection cyanamide 20 mg/litre, rooting medium 30 mg/litre cyanamide
[8] = pMOG 1156, Experiment 98-8, selection cyanamide 30 mg/litre, rooting medium 30 mg/litre cyanamide
[9] = pMOG 1156, Experiment 98-8, selection cyanamide 40 mg/litre, rooting medium 30 mg/litre cyanamide
[10] = pMOG 1156, Experiment 98-8, selection cyanamide 60 mg/litre, rooting medium 30 mg/litre cyanamide
[11] = pMOG 1156, Experiment 98-8, selection cyanamide 80 mg/litre, rooting medium 30 mg/litre cyanamide
[12] = pMOG 1156, Experiment 98-11, selection cyanamide 20 mg/litre, rooting medium 30 mg/litre cyanamide
[13] = pMOG 1156, Experiment 98-11, selection cyanamide 30 mg/litre, rooting medium 30 mg/litre cyanamide
[14] = pMOG 1156, Experiment 98-11, selection cyanamide 40 mg/litre, rooting medium 30 mg/litre cyanamide
[15] = pMOG 1156, Experiment 98-11, selection cyanamide 50 mg/litre, rooting medium 30 mg/litre cyanamide
[16] = pMOG 1156, Experiment 98-11, selection cyanamide 80 mg/litre, rooting medium 30 mg/litre cyanamide
[17] = pMOG 1156, Experiment 98-13, selection cyanamide 20 mg/litre, rooting medium same concentration as selection medium
[18] = pMOG 1156, Experiment 98-13, selection cyanamide 30 mg/litre, rooting medium same concentration as selection medium
[19] = pMOG 1156, Experiment 98-13, selection cyanamide 50 mg/litre, rooting medium same concentration as selection medium
[20] = pMOG 1156, Experiment 98-13, selection cyanamide 60 mg/litre, rooting medium same concentration as selection medium
[21] = pMOG 1156, Experiment 98-13, selection cyanamide 80 mg/litre, rooting medium same concentration as selection medium

NC[C@H]1O[C@H](O[C@H]2[C@H](O)[C@@H](O[C@H]3O[C@H](CO)[C@@H](O)[C@H](N)[C@H]3O)[C@H](N)C[C@@H]2N)[C@H](O)[C@@H](O)[C@@H]1O [Kanamycin]
Percentage of GUS expressing plants (% of plants staining blue) ([1]; pMOG 410, treatment kanamycin 50 mg/litre, shoots rooted on Kanamycin 25 mg/litre): 100^2%
% Shoots rooting [1, 4]: 46.8%
Nr. of plants (shoots developed into plants and able to root) [1, 4]: 29
% Shoots rooting [1, 5]: 47.5%
Nr. of plants (shoots developed into plants and able to root) [1, 5]: 19
% Shoots rooting [1, 6]: 20.6%
Nr. of plants (shoots developed into plants and able to root) [1, 6]: 14
Percentage of GUS expressing plants (% of plants staining blue) ([1]; pMOG 1156, treatment kanamycin 50 mg/litre, column headed C30 in rooting medium): 82-92%
Percentage of GUS expressing plants (% of plants staining blue) [2]: 100%

N#CN [Cyanamide]
Speed of shoot regeneration compared with kanamycin ([1]; PMOG 1156, lower cyanamide concentrations): regeneration of shoots was faster than with kanamycin
Regeneration of root explants ([1]; explants transformed with pMOG 410 (without the cah gene), 20 mg/litre cyanamide): already enough to prevent regeneration
Viability of root explants ([1]; explants transformed with pMOG 410, 50 mg/litre cyanamide and higher): not viable and turned completely brown
Callus development of root explants ([1]; explants transformed with pMOG 410, 20 till 40 mg/litre cyanamide): some callus development was observed
Regeneration of root explants ([1]; explants transformed with the cah gene (PMOG 1156), all cyanamide concentrations, even 80 mg/litre): able to regenerate at all cyanamide concentrations
% Shoots rooting [1, 7]: 0%
Nr. of plants (shoots developed into plants and able to root) [1, 7]: 0
% Shoots rooting [1, 8]: 6.3%
Nr. of plants (shoots developed into plants and able to root) [1, 8]: 4
% Shoots rooting [1, 9]: 8.2%
Nr. of plants (shoots developed into plants and able to root) [1, 9]: 5
% Shoots rooting [1, 10]: 8.2%
Nr. of plants (shoots developed into plants and able to root) [1, 10]: 5
% Shoots rooting [1, 11]: 13.8%
Nr. of plants (shoots developed into plants and able to root) [1, 11]: 9
% Shoots rooting [1, 12]: 1.7%
Nr. of plants (shoots developed into plants and able to root) [1, 12]: 1
% Shoots rooting [1, 13]: 3.2%
Nr. of plants (shoots developed into plants and able to root) [1, 13]: 2
% Shoots rooting [1, 14]: 4.5%
Nr. of plants (shoots developed into plants and able to root) [1, 14]: 3
% Shoots rooting [1, 15]: 8.1%
Nr. of plants (shoots developed into plants and able to root) [1, 15]: 5
% Shoots rooting [1, 16]: 15.6%
Nr. of plants (shoots developed into plants and able to root) [1, 16]: 10
% Shoots rooting [1, 17]: 4.8%
Nr. of plants (shoots developed into plants and able to root) [1, 17]: 3
% Shoots rooting [1, 18]: 14.5%
Nr. of plants (shoots developed into plants and able to root) [1, 18]: 9
Nr. of plants (shoots developed into plants and able to root) ([1]; pMOG 1156, Experiment 98-13, selection cyanamide 40 mg/litre, rooting medium same concentration as selection medium): 1
% Shoots rooting [1, 19]: 0%
Nr. of plants (shoots developed into plants and able to root) [1, 19]: 0
% Shoots rooting [1, 20]: 6.O
Nr. of plants (shoots developed into plants and able to root) [1, 20]: 4
% Shoots rooting [1, 21]: 11.4%
Nr. of plants (shoots developed into plants and able to root) [1, 21]: 8
Percentage of GUS expressing plants (% of plants staining blue) ([1]; pMOG 1156, treatment cyanamide 20 mg/litre, C30 in rooting medium): 0^1%
Percentage of GUS expressing plants (% of plants staining blue) ([1]; pMOG 1156, treatment cyanamide 20 mg/litre, rooting medium same conc. as treatment): 0%
Percentage of GUS expressing plants (% of plants staining blue) ([1]; pMOG 1156, treatment cyanamide 30 mg/litre, C30 in rooting medium): 75-100%
Percentage of GUS expressing plants (% of plants staining blue) ([1]; pMOG 1156, treatment cyanamide 30 mg/litre, rooting medium same conc. as treatment): 78%
Percentage of GUS expressing plants (% of plants staining blue) ([1]; pMOG 1156, treatment cyanamide 40 mg/litre, C30 in rooting medium): 40-100%
Percentage of GUS expressing plants (% of plants staining blue) ([1]; pMOG 1156, treatment cyanamide 40 mg/litre, rooting medium same conc. as treatment): 100%
Percentage of GUS expressing plants (% of plants staining blue) ([1]; pMOG 1156, treatment cyanamide 50 mg/litre, C30 in rooting medium): 80%
Percentage of GUS expressing plants (% of plants staining blue) ([1]; pMOG 1156, treatment cyanamide 60 mg/litre, C30 in rooting medium): 80%
Percentage of GUS expressing plants (% of plants staining blue) ([1]; pMOG 1156, treatment cyanamide 60 mg/litre, rooting medium same conc. as treatment): 100%
Percentage of GUS expressing plants (% of plants staining blue) ([1]; pMOG 1156, treatment cyanamide 80 mg/litre, C30 in rooting medium): 67-90%
Percentage of GUS expressing plants (% of plants staining blue) ([1]; pMOG 1156, treatment cyanamide 80 mg/litre, rooting medium same conc. as treatment): 100%
Observations (light microscope) ([3]; 10 mg/l): Signs of stress.
% dead cells (light microscope) ([3]; 10 mg/l): Approx 5% dead.
Growth of BMS cells ([3]; 10 mg/l, after 15 days): reduction in growth of BMS cells on 10 mg/l was still very clear
Observations (light microscope) ([3]; 30 mg/l): Striking differences from control cells.
% dead cells (light microscope) ([3]; 30 mg/l): Approx 15-20% dead.
Growth of BMS cells ([3]; 50 mg/l plus, after 15 days): showed no signs of growth
Observations (light microscope) ([3]; 50 mg/l): Increasing number of dead cells and accumulation of starch
% dead cells (light microscope) ([3]; 50 mg/l): Approx 50% dead.
Observations (light microscope) ([3]; 100 mg/l): Majority of cell dead.
% dead cells (light microscope) ([3]; 100 mg/l): Approx 90% dead.
Observations (light microscope) ([3]; 150 mg/l): Majority of cells dead.
% dead cells (light microscope) ([3]; 150 mg/l): Approx 95-98% dead.
Colour of BMS cells ([3]; all levels of cyanamide, after 8 days): no browning of cells was observed
Growth of BMS cells ([3]; cells spread over surface of media, 10 mg/l, after 8 days): significant reduction in growth
Cell density of BMS cells ([3]; cells spread over surface of media, 30 mg/l, after 8 days): slight increase in cell density
Growth of BMS cells ([3]; clumps and cells spread over agar, 30 mg/l plus, after 15 days): notable reduction in growth
Growth of BMS cell clumps ([3]; clumps on agar, 10 mg/l, after 8 days): had not outgrown their outline but the height of the clumps had increased
Cyanamide concentration with maximum effect on growth ([3]; clumps on agar, after 8 days): 50 mg/L
Growth of BMS cell clumps ([3]; repeated experiment, 10 mg/l): slight reduction in growth
Colour of BMS cell clumps ([3]; repeated experiment, above 50 mg/l): slight orange tinge
Growth of BMS cells ([3]; repeated experiment, cells spread over agar or on filters, 10 mg/l): slight growth (approximately doubling of the number of original cells)
Growth of BMS cells ([3]; repeated experiment, cells spread over agar or on filters, 20 mg/l and higher): limited of growth
Growth of BMS cell clumps ([3]; repeated experiment, from 20 mg/l on): showed no outgrowing from their original outline
